In patent publication US5606038A, “Amphiphilic polyene macrolide antibiotic compounds” (Competitive Technologies, Inc., priority 1995, dated 1997):
Values after ≈ are worked out from the molar mass of the structure shown. Read-outs that look alike come from different tables or passages of the source.

What was measured:
Candida albicans [1] = experiment: K+ release from fungal cells; format: cell-based; conditions: 3×10^7 fungal cells/ml, read-out: concentration for releasing 50% of the K+ from fungal cells
[2] = UV-vis spectroscopy of interaction with cholesterol-containing large unilamellar vesicles; conditions: 2.6 μM; 1 mM egg PC and 0.5 mM cholesterol; 20 minutes, 23° C.
Description: (§1) In order to confirm that the poly(ethylene glycol)conjugates of the present invention retain their ability to recognize ergosterol-rich bilayers, their interaction with sterol-containing large unilamellar vesicles (1000 A diameter, LUVs) by UV-vis spectroscopy using published techniques [see J. Am. Chem. Soc. 115:708 (1993)]. […] Thus, the poly(ethylene glycol) conjugates according to the present invention recognize ergosterol-rich bilayers in a way that is similar to Amphotericin B.

[3] = test system: Candida albicans (isolate NIH A); experiment: MIC against infecting isolate of Example V; format: cell-based; conditions: 24 and 48 hours
Cryptococcus neoformans = experiment: minimum inhibitory concentration, Cryptococcus neoformans, broth microdilution; format: cell-based; conditions: 24 h
Method: (§2) Microorganism inocula was harvested from one to five day old cultures grown on Sabourand's dextrose agar. After two washes with sterile saline, the inocula were counted utilizing a hemacytometer and diluted or concentrated as required to 1×10^4 blastospores per ml. Sterile molten agar (at 50° C.) was inoculated, allowed to cool, and 10 mm diameter discs impregnated (from […] stock solutions) with each of the test compounds was placed on the surface of the agar. Zones of inhibition were measured after incubating the plates at 30° C. for 24-48 hours.
(§3) The compounds were then screened against three strains of three species of microorganisms: Candida albicans, Cryptococcus neoformans, and Aspergillus fumigatus using a conventional double dilution technique. All tests reported in Table II were done by broth microdilution in yeast nitrogen base-glucose using an inoculum of 1×10^4 blastospores per ml; the cultures were incubated at 37° C. for 24 hours, and the minimum concentration (in μg/ml) that prevents visible growth was recorded as the minimum inhibitory concentration.

[4] = test system: Cryptococcus neoformans (isolate NIH C-1); experiment: survival of mice infected with Cryptococcus neoformans (Example VI); format: in vivo, Cryptococcus neoformans in ICR mice; conditions: 30 mg/kg i.p. once per day
Description: (§4) Ten immunocompetent ICR mice weighing 30 g each in two groups were inoculated intravenously with 255 colony forming units of Cryptococcus neoformans (isolate NIH C-1) per mouse.

[5] = hemolysis, 50% release of hemoglobin from human red blood cells; conditions: human, red blood cells
C. neoformans = experiment: second in vivo assay, survival of mice infected with C. neoformans; set-up: species or system C. neoformans in ICR mice; conditions: 5 mg/kg subcutaneous BID
Method: as §4
A second in vivo assay was conducted as in Example VI with the exception that infection was with 488 colony forming units of C. neoformans, and that the test compound was administered 5 mg/kg, subcutaneous, BID.

[6] = UV-vis spectroscopy of interaction with ergosterol-containing large unilamellar vesicles; conditions: Example II: 2.6 μM; 1 mM egg phosphatidyl choline and 0.5 mM ergosterol; 20 minutes, 23° C.
Description: as §1

Aspergillus fumigatus = experiment: minimum inhibitory concentration, Aspergillus fumigatus, broth microdilution; format: cell-based; conditions: 24 h, 37° C.
Method: as §2, §3

solubility in water = format: physicochemical
[7] = critical micelle concentration in PBS by molar absorptivity at 409 nm; format: physicochemical; conditions: PBS (pH 7.4), 37° C.
Description: In its monomeric state, Amphotericin B has a characteristic absorption band at 409 nm; upon aggregation, however, its apparent molar absorptivity decreases in magnitude [see Biochemistry 30:5707 (1991)]. Thus, by measuring its molar absorptivity as a function of the reciprocal of the macrolide concentration, one can estimate the critical micelle concentration. This can be shown mathematically by allowing T, m and P to represent the total, monomeric, and micellar concentrations (i.e. the concentration of the drug that is present in micellar form) of the macrolide, respectively, and if ε represents the apparent molar absorptivity and εm and εp are the molar absorptivity for the monomeric and micellar components, respectively, then it can be shown that ε=εp +(εm -εp)m/T. At concentrations in excess of the critical micelle concentration, m is a constant and ε is inversely proportional to T.
Using the method described previously, the critical micelle concentrations for Amphotericin B and the conjugates described in the preceding examples were determined and are reported in Table I describing the aggregation, antifungal and hemolytic properties of […] macrolide antibiotics (in μM amounts) according to the present invention.
^a critical micelle concentration was determined in PBS (pH 7.4) at […]

Candida albicans [8] = experiment: minimum inhibitory concentration, Candida albicans, broth microdilution; format: cell-based; conditions: 24 h, 37° C.
Method: ^c minimum inhibitory concentration (see Example IV); three different
strains of Candida albicans were tested; all tests were done in broth
microdilution in yeast nitrogen baseglucose at 37° C. for 24 hours
the initial inoculum was 1 × 10^4 blastospores per ml
The minimum inhibitory concentration reported in Table I was obtained, and further confirmed as reported in Table II, by the methods described in the following Example IV.
as §2, §3

## COCCOCCOCCOCCOCCOCCNC(=O)[C@H]1[C@@H]2C[C@@H](O[C@@H]3O[C@H](C)[C@@H](O)[C@H](N)[C@@H]3O)/C=C/C=C/C=C/C=C/C=C/C=C/C=C/[C@H](C)[C@@H](O)[C@@H](C)[C@H](C)OC(=O)C[C@H](O)C[C@H](O)CC[C@@H](O)[C@H](O)C[C@H](O)C[C@](O)(C[C@@H]1O)O2 [Example II]
Candida albicans [1]
  EC50: 1 µM
[2]
  absorption spectrum with cholesterol-containing vesicles: essentially the same as that observed in the presence of egg phosphatidyl choline vesicles (without sterol)
[3]; in DMSO and water
  MIC: 3.03 µg/mL (≈ 2.52 µM)
[3]; in water only
  MIC: ≤ 6.06 µg/mL
Cryptococcus neoformans; C. neoformans (1), 37° C., read-out: minimum inhibitory concentration
  MIC: 3.2 µg/mL (≈ 2.66 µM)
Cryptococcus neoformans; C. neoformans (2), 37° C., read-out: minimum inhibitory concentration
  MIC: 3.2 µg/mL (≈ 2.66 µM)
Cryptococcus neoformans; read-out: minimum inhibitory concentration, C. neofornams (3), 37° C.
  MIC: 3.2 µg/mL (≈ 2.66 µM)
[4]; day 9 post-infection
  percent survival: 100%
[4]; day 10 post-infection
  percent survival: 100%
[4]; day 13 post-infection
  percent survival: 100%
[4]; day 14 post-infection
  percent survival: 90%
[4]; day 15 post-infection
  percent survival: 90%
[4]; day 16 post-infection
  percent survival: 90%
[4]; day 17 post-infection
  percent survival: 90%
[4]; day 18 post-infection
  percent survival: 90%
[4]; day 19 post-infection
  percent survival: 90%
[4]; day 20 post-infection
  percent survival: 90%
[4]; day 21 post-infection
  percent survival: 90%
[4]; day 22 post-infection
  percent survival: 70%
[4]; day 25 post-infection
  percent survival: 70%
[4]; day 26 post-infection
  percent survival: 60%
[4]; day 27 post-infection
  percent survival: 60%
[4]; day 28 post-infection
  percent survival: 50%
[4]; day 29 post-infection
  percent survival: 50%
[4]; day 30 post-infection
  percent survival: 40%
[5]
  HC50 at 1 h: 42 µM
C. neoformans; day 11 post-infection
  percent survival: 100%
C. neoformans; day 12 post-infection
  percent survival: 80%
C. neoformans; day 13 post-infection
  percent survival: 60%
C. neoformans; day 14 post-infection
  percent survival: 60%
C. neoformans; day 15 post-infection
  percent survival: 60%
C. neoformans; day 16 post-infection
  percent survival: 60%
C. neoformans; day 17 post-infection
  percent survival: 60%
C. neoformans; day 19 post-infection
  percent survival: 60%
C. neoformans; day 20 post-infection
  percent survival: 60%
C. neoformans; day 21 post-infection
  percent survival: 60%
C. neoformans; day 22 post-infection
  percent survival: 60%
C. neoformans; day 23 post-infection
  percent survival: 40%
C. neoformans; day 24 post-infection
  percent survival: 20%
C. neoformans; day 27 post-infection
  percent survival: 20%
C. neoformans; day 28 post-infection
  percent survival: 10%
C. neoformans; day 29 post-infection
  percent survival: 10%
C. neoformans; day 30 post-infection
  percent survival: 0%
[6]
  absorption spectrum change with ergosterol-containing vesicles: strong diminution in the monomer band at 409 nm and new bands at 415, 390 and 375 nm
Aspergillus fumigatus; A. fumigatus (1)
  MIC: 6.4 µg/mL (≈ 5.33 µM)
Aspergillus fumigatus; A. fumigatus (2)
  MIC: 3.2 µg/mL (≈ 2.66 µM)
Aspergillus fumigatus; A. fumigatus (3)
  MIC: 3.2 µg/mL (≈ 2.66 µM)
Solubility in water
  solubility: ≥ 10000 µg/mL
[7]
  cmc (critical micelle concentration): 25 µM
Candida albicans [8]; C. albicans (1), read-out: minimum inhibitory concentration
  MIC: 6.4 µg/mL
Candida albicans [8]; C. albicans (2), read-out: minimum inhibitory concentration
  MIC: 3.2 µg/mL
Candida albicans [8]; C. albicans (3), read-out: minimum inhibitory concentration
  MIC: 3.2 µg/mL
Candida albicans [8]; three strains of Candida albicans, yeast nitrogen base-glucose, 1 × 10^4 blastospores per ml, read-out: MIC (minimum inhibitory concentration)
  MIC: 2.7 µM
